This is an account of results in ChEMBL document CHEMBL1133002 (J Med Chem, 2000).

For assay [1], the target named is T1, Adrenergic receptor alpha-1 (Rattus norvegicus, UniProt P15823+P23944+P43140).
T1 sequence (P15823 whole entry): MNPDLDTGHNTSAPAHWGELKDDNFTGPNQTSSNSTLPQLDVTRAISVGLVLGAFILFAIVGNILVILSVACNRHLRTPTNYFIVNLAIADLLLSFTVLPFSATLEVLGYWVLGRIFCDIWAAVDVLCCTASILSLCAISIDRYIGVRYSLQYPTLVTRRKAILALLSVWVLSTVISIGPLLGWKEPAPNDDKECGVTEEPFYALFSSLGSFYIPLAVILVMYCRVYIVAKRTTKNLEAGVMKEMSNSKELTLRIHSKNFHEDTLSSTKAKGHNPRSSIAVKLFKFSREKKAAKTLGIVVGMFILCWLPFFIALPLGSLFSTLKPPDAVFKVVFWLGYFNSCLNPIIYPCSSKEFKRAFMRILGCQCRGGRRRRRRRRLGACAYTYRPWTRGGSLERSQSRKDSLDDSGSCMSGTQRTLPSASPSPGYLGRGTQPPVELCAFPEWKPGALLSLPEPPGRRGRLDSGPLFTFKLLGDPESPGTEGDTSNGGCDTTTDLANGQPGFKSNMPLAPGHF
T1 sequence (P23944 whole entry): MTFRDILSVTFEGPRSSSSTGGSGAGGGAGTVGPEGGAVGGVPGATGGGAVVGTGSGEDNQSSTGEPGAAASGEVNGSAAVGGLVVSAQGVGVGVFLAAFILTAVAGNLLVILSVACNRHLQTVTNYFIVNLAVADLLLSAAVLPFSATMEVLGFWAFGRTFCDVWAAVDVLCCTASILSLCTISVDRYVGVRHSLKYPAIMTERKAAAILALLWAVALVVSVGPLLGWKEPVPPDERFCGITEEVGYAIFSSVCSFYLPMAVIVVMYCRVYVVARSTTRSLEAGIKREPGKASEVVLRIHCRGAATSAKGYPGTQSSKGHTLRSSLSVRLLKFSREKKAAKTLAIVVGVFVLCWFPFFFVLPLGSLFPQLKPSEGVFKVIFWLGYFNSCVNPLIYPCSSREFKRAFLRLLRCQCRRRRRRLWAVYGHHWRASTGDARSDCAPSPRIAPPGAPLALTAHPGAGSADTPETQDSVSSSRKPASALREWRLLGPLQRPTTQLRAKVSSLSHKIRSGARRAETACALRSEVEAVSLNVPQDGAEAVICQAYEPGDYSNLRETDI
T1 sequence (P43140 whole entry): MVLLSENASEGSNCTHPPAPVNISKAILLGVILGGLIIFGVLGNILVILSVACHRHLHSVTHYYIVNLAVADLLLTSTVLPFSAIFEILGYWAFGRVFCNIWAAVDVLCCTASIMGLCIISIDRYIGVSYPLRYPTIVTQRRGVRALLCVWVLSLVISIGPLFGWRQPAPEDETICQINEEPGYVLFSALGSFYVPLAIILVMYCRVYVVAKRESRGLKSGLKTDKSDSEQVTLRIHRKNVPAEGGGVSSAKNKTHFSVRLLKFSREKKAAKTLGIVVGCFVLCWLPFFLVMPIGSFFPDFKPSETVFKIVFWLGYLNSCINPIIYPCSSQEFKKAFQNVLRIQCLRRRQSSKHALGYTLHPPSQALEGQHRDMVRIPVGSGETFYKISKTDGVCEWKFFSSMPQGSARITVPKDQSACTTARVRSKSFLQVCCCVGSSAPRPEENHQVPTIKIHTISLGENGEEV
In words: in vitro alpha-1 adrenergic receptor binding assay from rats, using RX 821002 as the displaceable ligand. It is filed as protein assay.

Assay [2] has as its target T2, Alpha-2B adrenergic receptor (Rattus norvegicus, UniProt P19328).
T2 sequence (P19328 whole entry): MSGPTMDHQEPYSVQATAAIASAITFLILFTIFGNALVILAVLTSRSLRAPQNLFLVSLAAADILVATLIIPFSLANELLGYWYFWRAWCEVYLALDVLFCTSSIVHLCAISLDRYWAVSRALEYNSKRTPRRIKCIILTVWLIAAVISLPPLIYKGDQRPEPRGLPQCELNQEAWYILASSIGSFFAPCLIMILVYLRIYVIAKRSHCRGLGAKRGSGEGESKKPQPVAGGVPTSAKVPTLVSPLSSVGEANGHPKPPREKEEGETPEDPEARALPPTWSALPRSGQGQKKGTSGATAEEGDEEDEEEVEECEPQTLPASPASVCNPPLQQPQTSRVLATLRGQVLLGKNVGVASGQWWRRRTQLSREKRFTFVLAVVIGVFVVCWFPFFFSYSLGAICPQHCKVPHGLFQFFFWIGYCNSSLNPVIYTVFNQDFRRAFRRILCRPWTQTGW
Briefly: in vitro alpha-2B adrenergic receptor binding assay from rats, using RX 821002 as the displaceable ligand.

Assay [3] concerns Mus musculus. In words: (§1) potential antinociceptive activity initially at a screening dose of 30 mg/kg po in the mouse abdominal irritant test(MAIT) using acetylcholine bromide as irritant. It is filed as functional. Particulars: Abdomen.
Assay [4] deals with T3, Alpha-2A adrenergic receptor (Rattus norvegicus, UniProt P22909).
T3 sequence (P22909 whole entry): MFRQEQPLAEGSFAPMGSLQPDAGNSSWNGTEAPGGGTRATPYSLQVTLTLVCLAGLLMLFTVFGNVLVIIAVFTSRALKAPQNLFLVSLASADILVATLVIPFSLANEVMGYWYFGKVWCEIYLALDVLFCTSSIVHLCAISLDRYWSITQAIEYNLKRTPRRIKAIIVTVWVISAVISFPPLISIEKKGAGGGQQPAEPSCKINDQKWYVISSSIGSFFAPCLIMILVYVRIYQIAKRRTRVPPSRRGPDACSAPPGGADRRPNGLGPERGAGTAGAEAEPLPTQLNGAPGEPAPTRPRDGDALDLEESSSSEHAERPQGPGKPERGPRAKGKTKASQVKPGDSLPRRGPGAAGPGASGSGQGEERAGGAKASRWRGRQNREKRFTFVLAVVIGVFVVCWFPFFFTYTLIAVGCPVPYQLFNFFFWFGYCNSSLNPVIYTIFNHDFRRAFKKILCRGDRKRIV
In words: in vitro alpha-2A adrenergic receptor binding assay from rats, using RX 821002 as the displaceable ligand.

For assay [5], the species on record is Rattus norvegicus. Briefly: ED50 value was measured using rat air-induced abdominal irritant test(RAIT). It counts as functional. To be noted: Abdomen.
Assay [6] deals with T4, Alpha-2C adrenergic receptor (Rattus norvegicus, UniProt P22086).
T4 sequence (P22086 whole entry): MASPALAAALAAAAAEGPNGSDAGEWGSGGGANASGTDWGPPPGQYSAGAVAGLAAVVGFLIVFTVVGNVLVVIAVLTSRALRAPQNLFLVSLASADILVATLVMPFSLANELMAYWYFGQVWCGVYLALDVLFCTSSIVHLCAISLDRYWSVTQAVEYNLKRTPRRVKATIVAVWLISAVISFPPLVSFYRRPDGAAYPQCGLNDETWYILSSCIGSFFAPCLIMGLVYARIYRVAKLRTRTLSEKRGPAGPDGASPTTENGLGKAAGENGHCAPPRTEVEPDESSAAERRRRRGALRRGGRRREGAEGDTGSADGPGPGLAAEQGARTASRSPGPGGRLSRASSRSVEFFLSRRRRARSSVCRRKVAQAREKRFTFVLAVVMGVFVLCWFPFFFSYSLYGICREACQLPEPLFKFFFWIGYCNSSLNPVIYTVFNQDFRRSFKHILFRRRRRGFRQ
In words: in vitro alpha-2C adrenergic receptor binding assay from rats, using RX 821002 as the displaceable ligand.

Assay [7] deals with T5, Alpha-2A adrenergic receptor (Rattus norvegicus) (UniProt P22909).
T5 sequence (whole entry): T3 sequence (P22909 whole entry)
Briefly: % inhibition of alpha-2A adrenergic receptor binding at 1 uM.

Assay [8] concerns the target T6, Alpha-2C adrenergic receptor (Rattus norvegicus) (UniProt P22086).
T6 sequence (whole entry): T4 sequence (P22086 whole entry)
Briefly: % inhibition of alpha-2C adrenergic receptor binding at 1 uM.

The species entered for assay [9] is Mus musculus. Briefly: Peroral ED50 value was measured using mouse 48 degree hot plate test. It counts as functional. Particulars: po. (In general: Thermal pain tests record how soon the animal reacts.)
The species entered for assay [10] is Mus musculus. Briefly: Peroral ED50 value was measured using mouse abdominal irritant test(MAIT). To be noted: Abdomen, po. It is filed as functional.
The species entered for assay [11] is Mus musculus. Briefly: Peroral ED50 value was measured using mouse tail flick test. To be noted: po. It is filed as functional.
The test system of assay [12] is Mus musculus. The description is as §1. To be noted: Abdomen, read-out: Inhibition.

What is called Ki is the dissociation constant of the complex between target and ligand, obtained from inhibition or displacement. A high value points to lower affinity. What is called ED50 is the midpoint of the dose-response relation. High values mean a need for a large dose, low ones an effect at a small dose. Take `c1nc(C2CCCc3sccc32)c[nH]1` (configuration not stated): the Ki in assay [1] was 110 nM; in assay [2] it was 99 nM; in assay [4], 27 nM; in assay [6], 172 nM. Moreover, the inhibition in vivo at 30 mg/kg in assay [3] was 100%. The molecule further registered an ED50 in assay [5] of 0.9 mg/kg.

In general, inhibition refers to how much of the control response was suppressed. Turning to `c1nc(C2CCCc3ccsc32)c[nH]1` (configuration not stated), the values for the inhibition in assay [7] and in assay [8] were 87% and 54%, respectively. Moreover, in assay [1], affinity was put at a Ki of 91 nM. In [3], this molecule showed an inhibition in vivo at 30 mg/kg of 73%.

For the molecule `C1=C(c2c[nH]cn2)c2sccc2CC1`, the Ki in assay [1] came out at 399 nM; in assay [2], 940 nM; in assay [4], 224 nM. This molecule showed an inhibition in vivo at 30 mg/kg in [3] of 60%.

`c1cc(-c2c[nH]cn2)c2ccsc2c1`: the values for the Ki in assay [1], in assay [2] and in assay [4] were 343 nM, 663 nM and 277 nM, respectively. In assay [3], this molecule showed an inhibition in vivo at 30 mg/kg of 60%.

On to `C1=C(c2c[nH]cn2)c2ccsc2CC1`, for which the Ki was 443 nM in [1], 621 nM in assay [2] and 254 nM in assay [4]. For the same molecule, the inhibition in vivo at 30 mg/kg in [3] was determined as 100%. For the same molecule, the ED50 is 25.9 mg/kg in assay [9], 11.6 mg/kg in assay [10], 100 mg/kg in [11] and 15.1 mg/kg in assay [5].

On to `Cc1cccc([C@H](C)c2cnc[nH]2)c1C` [DEXMEDETOMIDINE], for which the inhibition in vivo at 30 mg/kg in assay [12] was 0.09%. For the same molecule, in [4], the Ki stood at 5 nM. The same molecule returned an ED50 in [5] of 0.12 mg/kg.

Molecule `Clc1cccc(Cl)c1NC1=NCCN1` [CLONIDINE] had an inhibition in vivo at 30 mg/kg in assay [3] of 0.05%. In assay [5], this molecule had a median effective dose (ED50) of 0.1 mg/kg.

Take `Cc1sc(C)c2c1CCCC2c1c[nH]cn1` (configuration not stated): the Ki in assay [1] is 48 nM; in assay [2], 141 nM; in assay [4], 68 nM; in [6], 205 nM. The molecule further yielded an inhibition in vivo at 30 mg/kg in [3] of 93%. The 50% effect level in [5] (ED50) was put at a dose of 7.9 mg/kg.

In the case of `Cc1sc(C)c2c1CCC=C2c1c[nH]cn1`, the inhibition constant Ki in assay [1] amounted to 110 nM; in assay [2], 100 nM; in assay [4], 25 nM; in assay [6], 26 nM. Also, the inhibition in vivo at 30 mg/kg in [3] is 40%.
